# Reference: patent publication US20260098008A1, “COVALENT, CHEMOGENETIC ACTIVATORS FOR K2P POTASSIUM CHANNELS AND USES THEREOF” (THE REGENTS OF THE UNIVERSITY OF CALIFORNIA, priority 2022, published 2026)
# Where a chain is given by its changes, count along the chain named.
# Key:
# K2P2.1 (TREK-1) = target: T1, K2P2.1 (TREK-1) (Mus musculus, UniProt P97438); experiment: Whole-cell patch clamp in transfected HEK293 cells; type: cell-based; settings: 20 μM; for Fold-activation (I activator/I control): whole-cell currents
# T1 construct: expressed in transfected cells; host or cells: Xenopus laevis oocytes injected with mRNA (pGEMHE/pMO vector)
# T1 sequence (P97438 1-411 isoform P97438-2): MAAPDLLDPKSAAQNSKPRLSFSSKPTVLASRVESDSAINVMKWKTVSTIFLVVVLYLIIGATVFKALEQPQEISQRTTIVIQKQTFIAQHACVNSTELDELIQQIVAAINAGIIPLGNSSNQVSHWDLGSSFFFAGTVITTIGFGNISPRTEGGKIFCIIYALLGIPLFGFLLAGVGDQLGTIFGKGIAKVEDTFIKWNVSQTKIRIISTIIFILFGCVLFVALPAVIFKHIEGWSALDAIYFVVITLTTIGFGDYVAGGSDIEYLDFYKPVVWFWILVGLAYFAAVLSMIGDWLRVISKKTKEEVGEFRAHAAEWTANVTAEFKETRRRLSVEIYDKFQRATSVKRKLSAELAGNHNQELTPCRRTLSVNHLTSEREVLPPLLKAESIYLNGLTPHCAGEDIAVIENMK
# Description: (§1) Mouse K2P2.1 (TREK-1) (Genbank accession number: NP_034737.2), mouse K2P10.1 (TREK-2) (NM_001316665.1), mouse K2P4.1 (TRAAK) (NM_008431.3), human K2P4.1 (TRAAK) (NM_033310.2) and mouse K2P18.1(TRESK) (NM_207261.3) were used for this study. Point mutations were introduced by site-directed mutagenesis using custom primers and confirmed by sequencing before use. For studies using Xenopus oocytes, K2P channels were subcloned into a previously reported pGEMHE/pMO vector (46). For expression in HEK293 cells, mouse K2P2.1 (TREK-1) and mutants were expressed from a previously described pIRES2-EGFP vector in HEK293 cells (46,47). K2P2.1 (TREK-1) tandems were constructed by connecting the open reading frames for the individual subunits with a linker encoding the […] (SEQ ID NO: 19) sequence. Tandems used for HEK293 cells included an N-terminal HA tag ([…] (SEQ ID NO: 20)) on the first subunit.
# (§2) 50% confluent cells were co-transfected (in 35-mm diameter wells) with 10-100 ng of the K2P2.1 plasmid and 400 ng of an eGFP plasmid (for visualization) using LipofectAMINE 2000 (Invitrogen) for 24 h, after which the cells were either plated onto coverslips or the media exchanged with fresh media. Cells were plated onto Matrigel coated coverslips (BD Biosciences) 1-2 hours before experiments.
# (§3) Whole-cell patch-clamp experiments with K2P2.1(TREK-1) and mutants were carried out 24-48 h after transfection. Acquisition and analysis for voltage-clamp experiments were performed using pCLAMP10 and an Axopatch 200B amplifier (Molecular Devices). Current-clamp experiments were acquired using an […] amplifier (Molecular Devices). Pipettes were pulled using a Flaming/Brown micropipette puller (P-97, Sutter Instruments) and flame-polished using a MF-830 microforge (Narishige). Electrode resistance after filling with pipette internal solution ranged from 2 to 5 MΩ. Currents were low-pass filtered at 2 kHz and sampled at 10 kHz. Pipette solution contained the following: 145 mM KCl, 3 mM MgCl2, 5 mM EGTA and 20 mM HEPES (pH 7.2 with KOH). Bath solution contained the following: 145 mM NaCl, 5 mM KCl, 1 mM CaCl2, 3 mM MgCl2 and 20 mM HEPES (pH 7.4 with NaOH). K2P2.1 currents were elicited by a 1 s ramp from −100 to +50 mV from a −80 mV holding potential. Current-clamp recordings were taken with no holding current (I=0). Only K2P2.1(TREK-1)^CG* whole-cell patches with basal currents between […] at 0 mV were used Criteria for A286F K2P2.1(TREK-1)^CG*. ML335 or CAT335 were applied at 20 μM in bath solution and were perfused at 3 ml min^−1 until potentiation stabilized (1-3 min). Data were analyzed using Clampfit 11 and GraphPad Prism 9.
# TREK-1^CG* = target: T2, TREK-1^CG* (Mus musculus, UniProt P97438, S146C); experiment: Whole-cell patch clamp in transfected HEK293 cells; type: cell-based; settings: 20 μM; for Fold-activation (I activator/I control): whole-cell currents
# T2 construct: expressed in transfected cells; host or cells: HEK293 (pIRES2-EGFP vector)
# T2 sequence (P97438 1-411 isoform P97438-2 S131C): T1 sequence (P97438 1-411 isoform P97438-2) with S131C
# Description: as §1, §2, §3
SMILES,Reversibility of activation on washout (K2P2.1 (TREK-1)),Fold-activation (I activator/I control) (K2P2.1 (TREK-1)),Reversibility of activation on washout (TREK-1^CG*),Fold-activation (I activator/I control) (TREK-1^CG*)
O=C(NCc1ccc(Cl)cc1Cl)c1ccc(N2C(=O)C=CC2=O)cc1 [CAT335],fully reversible,1.9 ± 0.2 fold,irreversible,8.5 ± 1.5 fold
"CS(=O)(=O)Nc1ccc(C(=O)NCc2ccc(Cl)cc2Cl)cc1 [ML335, reference compound]",–,6.2 ± 0.5 fold,–,3.7 ± 0.4 fold
